Laboratory results reported in EP4667466A1, “PROTAC DEGRADERS OF MLLT1 AND/OR MLLT3” (priority 2024, dated 2025).

Target: T1, MLLT1 (Homo sapiens, UniProt Q03111)
T1 construct: endogenous in cells; host or cells: MV4-11 (ATCC CRL-9591)
T1 sequence (Q03111 1-559): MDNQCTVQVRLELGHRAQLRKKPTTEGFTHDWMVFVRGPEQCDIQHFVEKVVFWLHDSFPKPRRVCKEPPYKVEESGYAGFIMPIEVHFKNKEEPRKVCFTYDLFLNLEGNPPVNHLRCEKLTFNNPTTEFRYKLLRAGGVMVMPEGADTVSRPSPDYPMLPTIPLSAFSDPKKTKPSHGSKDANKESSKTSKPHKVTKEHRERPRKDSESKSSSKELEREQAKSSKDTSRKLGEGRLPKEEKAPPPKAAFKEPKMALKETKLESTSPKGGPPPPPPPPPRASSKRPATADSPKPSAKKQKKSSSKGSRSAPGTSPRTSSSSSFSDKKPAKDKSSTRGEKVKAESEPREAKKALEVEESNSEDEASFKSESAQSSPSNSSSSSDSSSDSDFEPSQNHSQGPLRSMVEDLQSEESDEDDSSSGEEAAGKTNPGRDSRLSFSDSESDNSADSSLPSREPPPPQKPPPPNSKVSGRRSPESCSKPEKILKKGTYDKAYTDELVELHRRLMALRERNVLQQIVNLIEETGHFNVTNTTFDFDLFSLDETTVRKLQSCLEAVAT
Assay: MLLT1 degradation assay (JESS automated chemiluminescent detection) in MV4-11 cells
Format: cell-based
Settings: 24h, with respect to DMSO control
Method: MLLT1 degradation efficacy of compounds was tested in an automated chemiluminescent detection system (JESS, Cat# 004-650). MV4-11 (#CRL-9591, ATCC) cells were seeded at a density of 1.2 million cells/well in a non-treated 6-well cell culture plate in 2.4 mL of complete medium (IMDM + 10% FBS + 1X Penicillin-Streptomycin). 10 mM DMSO stocks were prepared, and cells were treated with three concentrations of test compounds viz. 1000, 100 and 10 nM at a final DMSO concentration of 0.1% and incubated for 24h at 37°C, 5% CO2. Post incubation, cells were centrifuged, washed with HBSS and lysed in 70 uL of RIPA buffer supplemented with Protease inhibitors (sc-24948; Santa Cruz). Subsequently, protein estimation was done using BCA protein assay kit (23225; Pierce). 4 ug protein lysate (4 uL of 1ug/uL lysate) was loaded into each well of the JESS cartridge (SM-WO01; Bio-techne) and the JESS run was performed using 1:900 dilution of anti-human MLLT1 antibody (14893; Cell signaling technology) and 1:1200 dilution of anti-human GAPDH antibody (2118; Cell signaling technology) with anti-rabbit secondary detection module (DM-001; Bio-Techne). Post run, data were analysed using "Compass for SW" software for chemiluminescent detection. The peak area for each band was used for the calculation of MLLT1 degradation with respect to DMSO control. Data is shown as "MLLT1 % degradation". Category A: A ≥ 75% degradation Category B: 50% ≤ B < 75% degradation Category C: 25% ≤ C < 50% degradation Category D: D < 25% degradation Table 1

SMILES | inhibition at 0.01 µM | inhibition at 0.1 µM | inhibition at 1 µM
Cc1nn(CCCCCCCC#Cc2ccc3c(c2)n(C)c(=O)n3C2CCC(=O)NC2=O)c2cc(C(=O)Nc3cc4[nH]c([C@H]5CCCN5C)cc4cn3)ccc12 (stereo partly drawn) [Example 39, 1-(9-(1-(2,6-dioxopiperidin-3-yl)-3-methyl-2-oxo-2,3-dihydro-1H benzo[d]imidazol-5-yl)non-8-yn-1-yl)-3-methyl-N-(2-((R)-1-methylpyrrolidin-2-yl)-1H-pyrrolo[3,2-c]pyridin-6-yl)-1H-indazole-6-carboxamide] | ≥ 75% | ≥ 75% | ≥ 75%
Cc1nn(CCOCCCCC#Cc2cccc3c2CN(C2CCC(=O)NC2=O)C3=O)c2cc(C(=O)Nc3cc4[nH]c([C@H]5CCCN5C)cc4cn3)ccc12 (stereo partly drawn) [Example 50] | ≥ 75% | ≥ 75% | ≥ 75%
Cc1nn(CCCCCCCC#Cc2ccc(F)c3c2CN(C2CCC(=O)NC2=O)C3=O)c2cc(C(=O)Nc3cc4[nH]c([C@H]5CCCN5C)cc4cn3)ccc12 (stereo partly drawn) [Example 52, 1-(9-(2-(2,6-dioxopiperidin-3-yl)-7-fluoro-1-oxoisoindolin-4-yl)non-8-yn-1-yl)-3-methyl-N-(2-((R)-1-methylpyrrolidin-2-yl)-1H-pyrrolo[3,2-c]pyridin-6-yl)-1H-indazole-6-carboxamide] | ≥ 75% | ≥ 75% | ≥ 75%
Cc1nn(CCCCCCCC#Cc2cccc(C3CCC(=O)NC3=O)n2)c2cc(C(=O)Nc3cc4[nH]c([C@H]5CCCN5C)cc4cn3)ccc12 (stereo partly drawn) [Example 62, 1-(9-(6-(2,6-dioxopiperidin-3-yl)pyridin-2-yl)non-8-yn-1-yl)-3-methyl-N-(2-((R)-1-methylpyrrolidin-2-yl)-1H-pyrrolo [3,2-c]pyridin-6-yl)-1H indazole-6-carboxamide] | 50 to 75% | 50 to 75% | ≥ 75%
Cc1nn(CCCCCCCCNc2cccc3c2C(=O)N(C2CCC(=O)NC2=O)C3=O)c2cc(C(=O)Nc3cc4[nH]c([C@H]5CCCN5C)cc4cn3)ccc12 (stereo partly drawn) [Example 3, 1-(8-{[2-(2,6-dioxopiperidin-3-yl)-1,3-dioxoisoindol-4-yl]amino}octyl)-3-methyl-N-{2-[(2R)-1-methylpyrrolidin-2-yl]-1H-pyrrolo[3,2-c]pyridin-6-yl}indazole-6-carboxamide] | 50 to 75% | ≥ 75% | ≥ 75%
Cc1c(OCCCCCCn2nc(C)c3ccc(C(=O)Nc4cc5[nH]c([C@H]6CCCN6C)cc5cn4)cc32)cccc1N1CCC(=O)NC1=O [Example 10, 1-16-[3-(2,4-dioxo-1,3-diazinan-1-yl)-2-methylphenoxy]hexyll-3-methyl-N-{2-[(2R)-1-methylpyrrolidin-2-yl]-1H-pyrrolo [3,2-c]pyridin-6-yl}indazole-6-carboxamide] | 25 to 50% | 25 to 50% | 25 to 50%
CN1CCC[C@@H]1c1cc2cnc(NC(=O)c3ccc4c(c3)c(N3CCC(CN5CCN(c6cc7c(cc6F)C(=O)N(C6CCC(=O)NC6=O)C7=O)CC5)CC3)nn4C)cc2[nH]1 (stereo partly drawn) [Example 6, 3-[4-({4-[2-(2,6-dioxopiperidin-3-yl)-6-fluoro-1,3-dioxoisoindol-5-yl]piperazin-1-yl}methyl)piperidin-1-yl]-1-methyl-N-{2-[(2R)-1-methylpyrrolidin-2-yl]-1H-pyrrolo[3,2-c]pyridin-6-yl}indazole-5-carboxamide] | 25 to 50% | 50 to 75% | ≥ 75%
Cc1nn(C2CCN(CC3CCN(c4cc5c(cc4F)C(=O)N(C4CCC(=O)NC4=O)C5=O)CC3)CC2)c2cc(C(=O)Nc3cc4[nH]c([C@H]5CCCN5C)cc4cn3)ccc12 (stereo partly drawn) [Example 69, 1-(1-((1-(2-(2,6-dioxopiperidin-3-yl)-6-fluoro-1,3-dioxoisoindolin-5-yl)piperidin-4-yl)methyl)piperidin-4-yl)-3-methyl-N-(2-((R)-1-methylpyrrolidin-2-yl)-1H-pyrrolo[3,2-c]pyridin-6-yl)-1H-indazole-6-carboxamide] | ≥ 75% | ≥ 75% | ≥ 75%
Cc1nn(CCCCCCCC#Cc2cccc3c2CN(C2CCC(=O)NC2=O)C3=O)c2cc(C(=O)Nc3cc4[nH]c([C@H]5CC6(CC6)CN5C)cc4cn3)ccc12 (stereo in doubt) [Example 56, 1-(9-(2-(2,6-dioxopiperidin-3-yl)-1-oxoisoindolin-4-yl)non-8-yn-1-yl)-3-methyl-N-(2-((rel-R)-5-methyl-5-azaspiro[2.4]heptan-6-yl)-1H-pyrrolo[3,2-c]pyridin-6-yl)-1H-indazole-6-carboxamide] | ≥ 75% | ≥ 75% | ≥ 75%
Cc1c([C@H]2CCCN2C)[nH]c2cc(NC(=O)c3ccc4c(C)nn(CCCCCCCC#Cc5cccc6c5CN(C5CCC(=O)NC5=O)C6=O)c4c3)ncc12 (stereo partly drawn) [Example 57, 1-(9-(2-(2,6-dioxopiperidin-3-yl)-1-oxoisoindolin-4-yl)non-8-yn-1-yl)-3-methyl-N-(3-methyl-2-((R)-1-methylpyrrolidin-2-yl)-1H-pyrrolo[3,2-c]pyridin-6-yl)-1H-indazole-6-carboxamide] | ≥ 75% | ≥ 75% | ≥ 75%
Cc1nn(CCCCCOCC#Cc2cccc3c2CN(C2CCC(=O)NC2=O)C3=O)c2cc(C(=O)Nc3cc4[nH]c([C@H]5CCCN5C)cc4cn3)ccc12 (stereo partly drawn) [Example 49, 1-(5-((3-(2-(2,6-dioxopiperidin-3-yl)-1-oxoisoindolin-4-yl)prop-2-yn-1-yl)oxy)pentyl)-3-methyl-N-(2-((R)-1-methylpyrrolidin-2-yl)-1H-pyrrolo[3,2-c]pyridin-6-yl)-1H-indazole-6-carboxamide] | ≥ 75% | ≥ 75% | ≥ 75%
Cc1nn(CCCCCCCCNc2cccc3c2C(=O)N(C2CCC(=O)NC2=O)C3=O)c2cc(C(=O)Nc3cc4[nH]c([C@H]5CCCN5C)c(Cl)c4cn3)ccc12 (stereo partly drawn) [Example 18, N-(3-chloro-2-((R)-1-methylpyrrolidin-2-yl)-1H-pyrrolo[3,2-c]pyridin-6-yl)-1-(8-((2-(2,6-dioxopiperidin-3-yl)-1,3-dioxoisoindolin-4-yl)amino)octyl)-3-methyl-1H-indazole-6-carboxamide] | ≥ 75% | ≥ 75% | ≥ 75%
Cc1nn(C2CCN(CC#Cc3cccc4c3CN(C3CCC(=O)NC3=O)C4=O)CC2)c2cc(C(=O)Nc3cc4[nH]c([C@H]5CCCN5C)cc4cn3)ccc12 (stereo partly drawn) [Example 68, 1-(1-(3-(2-(2,6-dioxopiperidin-3-yl)-1-oxoisoindolin-4-yl)prop-2-yn-1-yl)piperidin-4-yl)-3-methyl-N-(2-((R)-1-methylpyrrolidin-2-yl)-1H-pyrrolo[3,2-c]pyridin-6-yl)-1H-indazole-6-carboxamide] | ≥ 75% | ≥ 75% | 50 to 75%
Cc1c(OCCCCCCCCn2nc(C)c3ccc(C(=O)Nc4cc5[nH]c([C@H]6CCCN6C)cc5cn4)cc32)cccc1N1CCC(=O)NC1=O [Example 9, 1-{8-[3-(2,4-dioxo-1,3-diazinan-1-yl)-2-methylphenoxy]octyl}-3-methyl-N-{2-[(2R)-1-methylpyrrolidin-2-yl]-1H-pyrrolo[3,2-c]pyridin-6-yl}indazole-6-carboxamide] | < 25% | 25 to 50% | ≥ 75%
Cc1nn(CCCCCCCCNc2cccc3c2C(=O)N(C2CCC(=O)NC2=O)C3=O)c2cc(C(=O)Nc3cc4[nH]c(C5CCCN5C)cc4cn3)ccc12 (racemic) [Example 2, rac-1-(8-{[2-(2,6-dioxopiperidin-3-yl)-1,3-dioxoisoindol-4-yl]amino}octyl)-3-methyl-N-[2-(1-methylpyrrolidin-2-yl)-1H-pyrrolo[3,2-c]pyridin-6-yl]indazole-6-carboxamide] | 50 to 75% | ≥ 75% | ≥ 75%
